The test system of assay [1] is P388. Description: Cytotoxicity against mouse P388 cells. The class given is functional, cell-based.
The subject of assay [2] is KB. Description: Cytotoxicity against human KB cells. The class given is functional, cell-based.

SMILES strings stand for the structures. Activity calls are given as the source filed them. The rule behind the calls is not given here.

The results in this text go back to ChEMBL document CHEMBL1149011, “Pulcherralpin, a new diterpene ester from Caesalpinia pulcherrima” (J Nat Prod, 1986).

With `COC(=O)C[C@@H]1C(=O)C[C@H]2[C@H]([C@H]1C)[C@@H](O)[C@@H](OC(=O)/C=C/c1ccccc1)[C@@]1(O)C(C)(C)CCC[C@]21C`, the outcome in assay [1] and in assay [2] was inactive.
